# Test results published in patent US9975852B2, “Quinoline sulfonyl derivatives and uses thereof” (Health Sciences North Research Institute, priority 2013, dated 2018).
# Where two headings read alike, the source gives them in different places.
# Tests used:
# MCF7 = experiment: SRB antiproliferative assay, MCF7; format: cell-based, human; settings: Homo sapiens, MCF7; SRB, 48 h; read-out: GI50 MCF7
# Description: (§1) Antiproliferative effects were determined by a sulforhodamine B (SRB) based protocol. For a typical screening experiment, 5,000-10,000 cells were inoculated into 100 μl medium per well of a 96-well microtiter plate as described previously. […] Some of the sample wells were fixed with 25 μl of 50% trichloroacetic acid (TCA) as a control of the cell population for each cell line at the time of drug addition (Tz). An aliquot of the frozen stock was thawed and diluted to the desired final maximum test-concentration with complete medium. Two to ten-fold serial dilutions were made to provide a total of seven drug concentrations (and a control [C]). Following addition of drugs, the culture plate was incubated for additional 48 h. Cells were fixed in situ by slowly adding 25 μl of ice-cold 50% (w/v) TCA (final concentration, 10% TCA), and were then incubated for 60 min at 4° C. The supernatant was discarded, and the plate was washed five times with tap water, followed by air-dry. 50 μl of SRB solution at 0.4% (w/v) in 1% acetic acid was added to each well, and the plate was incubated for >30 min at room temperature. Unbound SRB was removed by five washes with tap water, followed by air-drying. […] The relative growth rate (%) was calculated for each of the compound concentrations according to the following formula: (Ti−Tz)/(C−Tz)×100 In the formula, time zero (Tz), control growth (C), and OD for different concentration of tested compounds (Ti). The GI50 for each compound was obtained from a non-linear Sigmoidal dose-response (variable slope) curve which is fitted by GraphPad Prism™ v.4.03 software. Values were calculated for each of these parameters if the level of activity was reached. However, if the effect was not reached or was exceeded, the value for that parameter was expressed as greater or less than the maximum or minimum concentration tested. Flow Cytometry
# 184B5 = experiment: SRB antiproliferative assay, 184B5 non-cancer breast cells; format: cell-based, human; settings: Homo sapiens, read-out: GI50 184B5
# Description: as §1
# MDA-MB468 = experiment: SRB antiproliferative assay, MDA-MB468; format: cell-based, human; settings: Homo sapiens, MDA-MB-468, 48 h
# Description: as §1
# MDA-MB231 = experiment: SRB antiproliferative assay, MDA-MB231; format: cell-based, human; settings: Homo sapiens, MDA-MB-231, 48 h
# Description: as §1
SMILES,GI50 (MCF7),GI50 (MDA-MB468),GI50 (MDA-MB231),melting point,"GI50 (184B5; 184B5, SRB, 48 h)","GI50 (184B5; 184B5, 48 h)"
"COC(=O)c1sccc1S(=O)(=O)N1CCN(c2ccnc3cc(C(F)(F)F)ccc23)CC1 [Compound 14, 3-[4-(7-Trifluoromethyl-quinolin-4-yl)-piperazine-1-sulfonyl]-thiophene-2-carboxylic acid methyl ester]",16 ± 0.24 µM,23.9 ± 0.64 µM,34.7 ± 0.71 µM,117 to 119 °C,15.88 ± 0.14 µM,–
"Cc1ccc(S(=O)(=O)N2CCN(c3ccnc4cc(C(F)(F)F)ccc34)CC2)cc1 [Compound 8, 4-[4-(Toluene-4-sulfonyl)-piperazin-1-yl]-7-trifluoromethyl-quinoline]",20.8 ± 0.23 µM,36.5 ± 0.75 µM,42.7 ± 0.83 µM,126 to 128 °C,13 ± 0.14 µM,–
"CS(=O)(=O)N1CCN(c2ccnc3cc(C(F)(F)F)ccc23)CC1 [Compound 11, 4-(4-Methanesulfonyl-piperazin-1-yl)-7-trifluoromethyl-quinoline]",25.6 ± 0.26 µM,28.6 ± 0.69 µM,44.4 ± 0.85 µM,116 to 118 °C,93.93 ± 0.89 µM,–
"CN(C)c1cccc2c(S(=O)(=O)N3CCN(c4ccnc5cc(C(F)(F)F)ccc45)CC3)cccc12 [Compound 13, Dimethyl-{5-[4-(7-trifluoromethyl-quinolin-4-yl)-piperazine-1-sulfonyl]-naphthalen-1-yl}-amine]",12.8 ± 0.21 µM,19 ± 0.55 µM,22 ± 0.59 µM,98 to 100 °C,12 ± 0.15 µM,–
"COC(=O)c1sccc1S(=O)(=O)N1CCN(c2ccnc3cc(Cl)ccc23)CC1 [Compound 2, Methyl 3-(4-(7-chloroquinolin-4-yl)piperazin-1-ylsulfonyl)thiophene-2-carboxylate]",22.37 ± 0.21 µM,30.2 ± 0.71 µM,40.4 ± 0.82 µM,117 to 119 °C,15.2 ± 0.18 µM,–
"O=S(=O)(c1ccc(Cl)cc1Cl)N1CCN(c2ccnc3cc(Cl)ccc23)CC1 [Compound 5, 7-Chloro-4-(4-(2,4-dichlorophenylsulfonyl)piperazin-1-yl)quinoline]",13.5 ± 0.23 µM,21.6 ± 0.61 µM,40.6 ± 0.81 µM,145 to 147 °C,12.4 ± 0.15 µM,–
"O=S(=O)(c1ccc(-c2ccccc2)cc1)N1CCN(c2ccnc3cc(C(F)(F)F)ccc23)CC1 [Compound 9, 4-[4-(Biphenyl-4-sulfonyl)-piperazin-1-yl]-7-trifluoromethyl-quinoline]",14.8 ± 0.19 µM,20.5 ± 0.54 µM,27.2 ± 0.61 µM,148 to 150 °C,19.1 ± 0.24 µM,–
"CN(C)c1cccc2c(S(=O)(=O)N3CCN(c4ccnc5cc(Cl)ccc45)CC3)cccc12 [Compound 4, 5-(4-(7-Chloroquinolin-4-yl)piperazin-1-ylsulfonyl)-N,N-dimethylnaphthalen-1-amine]",–,27.5 ± 0.66 µM,35 ± 0.76 µM,145 to 147 °C,28.25 ± 0.26 µM,–
"O=S(=O)(c1ccc(-c2ccccc2)cc1)N1CCN(c2ccnc3cc(Cl)ccc23)CC1 [Compound 3, 7-Chloro-4-(4-(biphenylsulfonyl)piperazin-1-yl)quinoline]",9.23 ± 0.21 µM,18.2 ± 0.54 µM,26.2 ± 0.62 µM,238 to 240 °C,16.4 ± 0.23 µM,–
"O=[N+]([O-])c1ccc(S(=O)(=O)NCCCNc2ccnc3cc(C(F)(F)F)ccc23)c([N+](=O)[O-])c1 [Compound 25, 2,4-Dinitro-N-[3-(7-trifluoromethyl-quinolin-4-ylamino)-propyl]-benzenesulfonamide]",5.56 ± 0.34 µM,8.46 ± 0.41 µM,8.91 ± 0.77 µM,198 to 200 °C,–,15.9 ± 0.89 µM
"O=[N+]([O-])c1ccc(S(=O)(=O)NCCCNc2ccnc3cc(Cl)ccc23)c([N+](=O)[O-])c1 [Compound 17, N-[3-(7-Chloro-quinolin-4-ylamino)-propyl]-2,4-dinitro-benzenesulfonamide]",6.16 ± 0.32 µM,7.35 ± 0.23 µM,8.85 ± 0.71 µM,238 to 240 °C,–,9.09 ± 0.56 µM
"O=S(=O)(c1ccc(Cl)cc1)N1CCN(c2ccnc3cc(C(F)(F)F)ccc23)CC1 [Compound 7, 4-[4-(4-Chloro-benzenesulfonyl)-piperazin-1-yl]-7-trifluoromethyl-quinoline]",27.36 ± 0.27 µM,34.9 ± 0.78 µM,41.4 ± 0.83 µM,144 to 146 °C,–,–

# Second part, led by results:
GI50 (MCF7),GI50 (MDA-MB468),GI50 (MDA-MB231),melting point,SMILES,"GI50 (184B5; 184B5, SRB, 48 h)","GI50 (184B5; 184B5, 48 h)"
4.33 ± 0.23 µM,4.55 ± 0.25 µM,7.48 ± 0.63 µM,137 to 139 °C,"COC(=O)c1sccc1S(=O)(=O)NCCCNc1ccnc2cc(C(F)(F)F)ccc12 [Compound 31, N-(3-(7-Trifluoromethyl-quinolin-4-ylamino)propyl)thiophene-3-sulfonamide-2-carbomethoxy ester]",12.1 ± 0.45 µM,–
7.73 ± 0.61 µM,9.71 ± 0.33 µM,14.2 ± 0.98 µM,199 to 201 °C,"CN(C)c1cccc2c(S(=O)(=O)NCCCNc3ccnc4cc(C(F)(F)F)ccc34)cccc12 [Compound 28, 5-Dimethylamino-naphthalene-1-sulfonic acid [3-(7-trifluoromethyl-quinolin-4-ylamino)-propyl]-amide]",3.73 ± 0.21 µM,–
3.6 ± 0.27 µM,4.19 ± 0.23 µM,6.03 ± 0.38 µM,110 to 112 °C,"O=S(=O)(NCCCNc1ccnc2cc(C(F)(F)F)ccc12)c1ccc(-c2ccccc2)cc1 [Compound 29, Biphenyl-4-sulfonic acid [3-(7-trifluoromethyl-quinolin-4-ylamino)-propyl]-amide]",2.82 ± 0.05 µM,–
5.25 ± 0.45 µM,5.77 ± 0.41 µM,6.16 ± 0.51 µM,–,"Cc1ccc(S(=O)(=O)NCCCNc2ccnc3cc(Cl)ccc23)cc1 [Compound 16, N-[3-(7-Chloro-quinolin-4-ylamino)-propyl]-4-methyl-benzenesulfonamide]",9.56 ± 0.53 µM,–
8.25 ± 0.52 µM,9.09 ± 0.57 µM,15.8 ± 0.95 µM,98 to 100 °C,"O=[N+]([O-])c1cccc(S(=O)(=O)NCCCNc2ccnc3cc(C(F)(F)F)ccc23)c1 [Compound 26, 3-Nitro-N-[3-(7-trifluoromethyl-quinolin-4-ylamino)-propyl]-benzenesulfonamide]",8.01 ± 0.76 µM,–
6.9 ± 0.45 µM,6.21 ± 0.42 µM,6.36 ± 0.48 µM,77 to 79 °C,"Cc1ccc(S(=O)(=O)NCCCNc2ccnc3cc(C(F)(F)F)ccc23)cc1 [Compound 24, 4-Methyl-N-[3-(7-trifluoromethyl-quinolin-4-ylamino)-propyl]-benzenesulfonamide]",12.2 ± 0.86 µM,–
5.18 ± 0.29 µM,3.94 ± 0.12 µM,6.97 ± 0.54 µM,117 to 119 °C,"O=S(=O)(NCCCNc1ccnc2cc(C(F)(F)F)ccc12)c1ccc(Cl)cc1Cl [Compound 30, 2,4-Dichloro-N-[3-(7-trifluoromethyl-quinolin-4-ylamino)-propyl]-benzenesulfonamide]",3.22 ± 0.08 µM,–
23.1 ± 0.87 µM,28.6 ± 1.03 µM,40.9 ± 1.52 µM,–,"CS(=O)(=O)NCCCNc1ccnc2cc(Cl)ccc12 [Compound 15, N-[3-(7-Chloro-quinolin-4-ylamino)-propyl]-methanesulfonamide]",23.3 ± 0.92 µM,–
5.44 ± 0.34 µM,10.3 ± 0.56 µM,12.8 ± 0.88 µM,70 to 72 °C,"O=S(=O)(NCCCNc1ccnc2cc(C(F)(F)F)ccc12)c1ccc(Cl)cc1 [Compound 27, 4-Chloro-N-[3-(7-trifluoromethyl-quinolin-4-ylamino)-propyl]-benzenesulfonamide]",7.63 ± 0.43 µM,–
8.62 ± 0.38 µM,9.21 ± 0.65 µM,20.4 ± 1.15 µM,–,"O=[N+]([O-])c1cccc(S(=O)(=O)NCCCNc2ccnc3cc(Cl)ccc23)c1 [Compound 18, N-(3-(7-Chloroquinolin-4-ylamino)propyl)-3-nitrobenzenesulfonamide]",15.8 ± 0.88 µM,–
4.04 ± 0.22 µM,3.61 ± 0.12 µM,6.76 ± 0.55 µM,145 to 147 °C,"O=S(=O)(NCCCNc1ccnc2cc(Cl)ccc12)c1ccc(Cl)cc1Cl [Compound 21, 2,4-Dichloro-N-[3-(7-chloro-quinolin-4-ylamino)-propyl]-benzenesulfonamide]",3.55 ± 0.21 µM,–
4.31 ± 0.32 µM,8.34 ± 0.73 µM,11.8 ± 0.91 µM,–,"O=S(=O)(NCCCNc1ccnc2cc(Cl)ccc12)c1ccc(Cl)cc1 [Compound 19, 4-Chloro-N-(3-(7-chloroquinolin-4-ylamino)propyl)benzenesulfonamide]",6.36 ± 0.34 µM,–
